From ChEMBL document CHEMBL1153945 (Bioorg Med Chem, 2009)

Legend:
Nitric oxide synthase 1 = Nitric oxide synthase 1 (Rattus norvegicus, UniProt P29476)
Description: Inhibition of rat recombinant nNOS expressed in Escherichia coli assessed as nitric oxide formation by hemoglobin capture assay

[1] = molecular target: T1, Nitric oxide synthase, inducible (Mus musculus, UniProt P29477)
T1 sequence (P29477 whole entry): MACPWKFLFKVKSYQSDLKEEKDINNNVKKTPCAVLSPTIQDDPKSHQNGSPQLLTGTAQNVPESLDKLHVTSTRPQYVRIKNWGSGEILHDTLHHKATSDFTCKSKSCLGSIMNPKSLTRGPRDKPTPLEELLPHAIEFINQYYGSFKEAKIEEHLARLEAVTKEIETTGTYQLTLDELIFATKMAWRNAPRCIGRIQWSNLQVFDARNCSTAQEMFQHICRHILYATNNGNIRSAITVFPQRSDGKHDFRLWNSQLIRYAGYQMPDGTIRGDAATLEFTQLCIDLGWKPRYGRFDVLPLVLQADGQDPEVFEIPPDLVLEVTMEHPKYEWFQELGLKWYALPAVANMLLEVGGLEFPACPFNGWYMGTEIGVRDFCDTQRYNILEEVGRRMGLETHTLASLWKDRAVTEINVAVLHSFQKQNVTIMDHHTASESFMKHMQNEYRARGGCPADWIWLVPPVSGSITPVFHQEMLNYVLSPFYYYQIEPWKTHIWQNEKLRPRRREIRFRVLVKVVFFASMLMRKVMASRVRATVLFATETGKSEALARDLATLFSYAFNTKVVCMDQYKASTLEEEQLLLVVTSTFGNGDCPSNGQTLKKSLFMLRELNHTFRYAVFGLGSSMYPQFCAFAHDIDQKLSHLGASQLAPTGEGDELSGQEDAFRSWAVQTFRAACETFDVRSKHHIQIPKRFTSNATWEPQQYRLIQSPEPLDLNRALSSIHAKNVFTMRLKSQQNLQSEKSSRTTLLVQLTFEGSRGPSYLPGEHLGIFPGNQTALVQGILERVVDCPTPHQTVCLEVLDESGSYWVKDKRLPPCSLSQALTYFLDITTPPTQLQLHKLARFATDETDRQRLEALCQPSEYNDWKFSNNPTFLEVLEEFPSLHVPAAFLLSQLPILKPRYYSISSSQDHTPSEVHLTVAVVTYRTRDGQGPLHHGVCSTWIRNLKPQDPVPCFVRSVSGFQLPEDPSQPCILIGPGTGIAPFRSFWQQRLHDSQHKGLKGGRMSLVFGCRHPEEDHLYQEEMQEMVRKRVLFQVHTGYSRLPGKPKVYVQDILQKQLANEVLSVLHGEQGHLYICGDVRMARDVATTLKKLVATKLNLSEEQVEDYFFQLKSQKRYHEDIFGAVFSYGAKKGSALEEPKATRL
Description: Inhibition of mouse recombinant iNOS expressed in Escherichia coli assessed as nitric oxide formation by hemoglobin capture assay

Nitric oxide synthase 3 = molecular target: T2, Nitric oxide synthase 3 (Bos taurus, UniProt P29473)
T2 sequence (P29473 whole entry): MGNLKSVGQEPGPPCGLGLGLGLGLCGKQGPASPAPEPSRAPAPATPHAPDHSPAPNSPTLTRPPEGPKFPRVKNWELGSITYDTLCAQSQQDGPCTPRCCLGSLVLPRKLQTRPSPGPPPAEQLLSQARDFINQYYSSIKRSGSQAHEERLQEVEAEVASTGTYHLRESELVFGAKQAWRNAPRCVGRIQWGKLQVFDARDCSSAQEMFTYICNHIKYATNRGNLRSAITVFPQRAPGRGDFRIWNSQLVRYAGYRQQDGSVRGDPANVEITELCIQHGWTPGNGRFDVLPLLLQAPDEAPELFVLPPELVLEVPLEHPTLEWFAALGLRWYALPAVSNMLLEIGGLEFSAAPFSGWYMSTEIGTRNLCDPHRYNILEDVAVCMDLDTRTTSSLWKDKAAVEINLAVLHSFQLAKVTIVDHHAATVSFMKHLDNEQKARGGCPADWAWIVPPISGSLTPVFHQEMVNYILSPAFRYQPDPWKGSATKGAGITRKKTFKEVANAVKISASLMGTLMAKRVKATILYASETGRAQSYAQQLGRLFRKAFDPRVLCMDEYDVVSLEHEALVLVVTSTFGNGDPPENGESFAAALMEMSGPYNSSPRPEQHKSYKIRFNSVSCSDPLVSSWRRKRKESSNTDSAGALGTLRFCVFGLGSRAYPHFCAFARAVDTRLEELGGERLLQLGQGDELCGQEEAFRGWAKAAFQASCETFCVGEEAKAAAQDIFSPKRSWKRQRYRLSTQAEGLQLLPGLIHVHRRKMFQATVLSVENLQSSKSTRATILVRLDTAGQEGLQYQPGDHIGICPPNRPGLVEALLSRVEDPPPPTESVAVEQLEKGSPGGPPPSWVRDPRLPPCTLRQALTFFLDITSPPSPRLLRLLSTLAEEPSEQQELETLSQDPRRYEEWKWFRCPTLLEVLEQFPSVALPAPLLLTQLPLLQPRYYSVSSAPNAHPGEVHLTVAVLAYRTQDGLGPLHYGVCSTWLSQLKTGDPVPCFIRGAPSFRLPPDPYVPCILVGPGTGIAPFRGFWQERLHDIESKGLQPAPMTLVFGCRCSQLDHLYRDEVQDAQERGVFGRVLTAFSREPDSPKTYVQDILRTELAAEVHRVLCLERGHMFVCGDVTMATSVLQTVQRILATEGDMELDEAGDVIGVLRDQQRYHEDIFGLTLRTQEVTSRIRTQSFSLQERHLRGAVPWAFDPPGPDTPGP
Description: Inhibition of bovine recombinant eNOS expressed in Escherichia coli assessed as nitric oxide formation by hemoglobin capture assay

Nitric oxide synthase 1, sequence (P29476 whole entry): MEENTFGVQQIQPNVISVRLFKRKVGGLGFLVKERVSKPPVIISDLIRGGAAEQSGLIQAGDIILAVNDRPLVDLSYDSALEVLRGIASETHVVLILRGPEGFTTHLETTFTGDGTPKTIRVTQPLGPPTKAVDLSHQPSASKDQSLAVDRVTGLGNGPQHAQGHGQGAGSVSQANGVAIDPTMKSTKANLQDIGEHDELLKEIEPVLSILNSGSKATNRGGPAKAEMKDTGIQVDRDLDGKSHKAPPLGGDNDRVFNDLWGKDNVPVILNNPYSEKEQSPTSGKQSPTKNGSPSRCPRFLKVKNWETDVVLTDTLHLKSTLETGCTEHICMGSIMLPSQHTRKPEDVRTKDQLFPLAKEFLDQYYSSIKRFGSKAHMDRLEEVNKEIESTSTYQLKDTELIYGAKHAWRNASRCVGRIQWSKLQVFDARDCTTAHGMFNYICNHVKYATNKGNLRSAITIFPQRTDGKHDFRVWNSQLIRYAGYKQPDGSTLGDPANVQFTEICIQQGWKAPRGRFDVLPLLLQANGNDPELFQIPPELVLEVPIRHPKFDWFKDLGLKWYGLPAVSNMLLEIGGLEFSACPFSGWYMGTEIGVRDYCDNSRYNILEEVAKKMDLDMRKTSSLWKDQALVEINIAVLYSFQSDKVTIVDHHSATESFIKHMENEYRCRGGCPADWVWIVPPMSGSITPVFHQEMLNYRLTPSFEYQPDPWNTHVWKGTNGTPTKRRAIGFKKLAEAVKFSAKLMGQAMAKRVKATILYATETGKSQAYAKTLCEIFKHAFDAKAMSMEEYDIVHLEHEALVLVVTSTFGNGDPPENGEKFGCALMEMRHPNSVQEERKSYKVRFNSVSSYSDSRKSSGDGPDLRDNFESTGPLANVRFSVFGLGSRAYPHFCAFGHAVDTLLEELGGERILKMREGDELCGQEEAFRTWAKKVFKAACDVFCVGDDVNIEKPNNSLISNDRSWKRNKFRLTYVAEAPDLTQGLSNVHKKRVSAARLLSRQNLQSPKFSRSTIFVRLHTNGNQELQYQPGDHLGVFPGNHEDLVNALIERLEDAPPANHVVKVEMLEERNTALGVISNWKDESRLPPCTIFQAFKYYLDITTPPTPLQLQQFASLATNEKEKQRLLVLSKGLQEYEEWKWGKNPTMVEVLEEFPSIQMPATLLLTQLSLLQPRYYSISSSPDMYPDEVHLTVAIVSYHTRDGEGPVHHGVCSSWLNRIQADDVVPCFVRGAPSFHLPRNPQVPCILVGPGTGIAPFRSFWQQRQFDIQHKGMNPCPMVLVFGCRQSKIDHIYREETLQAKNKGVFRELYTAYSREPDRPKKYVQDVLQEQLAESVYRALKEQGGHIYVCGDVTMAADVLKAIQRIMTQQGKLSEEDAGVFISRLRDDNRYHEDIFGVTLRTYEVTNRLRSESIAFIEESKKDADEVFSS

Ki (Nitric oxide synthase 1) | Ki [1] | Ki (Nitric oxide synthase 3) | SMILES
0.053 µM | – | – | Cc1cc(N)nc(C[C@H]2CNC[C@H]2NC(=O)CNCCc2cccc(F)c2)c1 (racemic)
0.4 µM | 4 µM | 33 µM | Cc1cc(N)nc(C[C@H]2CNC[C@H]2NCCOCCc2cccc(F)c2)c1 (racemic)
– | – | 145 µM | Cc1cc(N)nc(C[C@H]2CNC[C@H]2OCC(=O)NCCc2cccc(F)c2)c1 (racemic)
5 µM | – | 107 µM | Cc1cc(N)nc(C[C@H]2CNC[C@H]2OCCNC(=O)Cc2cccc(F)c2)c1 (racemic)
